# From PMC5218480 (PLoS ONE, 2017)
# Test system: MV-4-11 cells
# Experiment: Gene expression microarray analysis (Affymetrix PrimeView) and GSEA
# Format: cell-based, human
# Parameters: RFU PODN (11730768_x_at) / Fold change /veh PODN (11730768_x_at) / RFU LINC00158 (11744669_a_at) / Fold change /veh LINC00158 (11744669_a_at) / RFU DUSP10 (11751237_a_at) / Fold change /veh DUSP10 (11751237_a_at) / RFU ID3 (11757404_x_at) / Fold change /veh ID3 (11757404_x_at) / RFU PLEKHG5 (11737974_s_at) / Fold change /veh PLEKHG5 (11737974_s_at) / RFU LRRC4B (11730491_at) / Fold change /veh LRRC4B (11730491_at) / RFU GIMAP4 (11747438_a_at) / Fold change /veh GIMAP4 (11747438_a_at) / RFU KRT8 (11758183_x_at) / Fold change /veh KRT8 (11758183_x_at) / RFU CNN1 (11734310_a_at) / Fold change /veh CNN1 (11734310_a_at) / RFU VPS37D (11726825_at) / Fold change /veh VPS37D (11726825_at) / RFU C10orf10 (11716522_x_at) / Fold change /veh C10orf10 (11716522_x_at) / RFU KIR2DL2 /// KIR2DL4 /// KIR2DL5A /// KIR2DL5B /// KIR2DS1 /// KIR2DS2 /// KIR2DS3 /// KIR2DS4 /// KIR3DL3 /// KIR3DL3 /// KIR3DS1 (11738374_at) / Fold change /veh KIR2DL2 /// KIR2DL4 /// KIR2DL5A /// KIR2DL5B /// KIR2DS1 /// KIR2DS2 /// KIR2DS3 /// KIR2DS4 /// KIR3DL3 /// KIR3DL3 /// KIR3DS1 (11738374_at) / RFU C1QL1 (11718748_at) / Fold change /veh C1QL1 (11718748_at) / RFU TMPRSS4 (11747572_a_at) / Fold change /veh TMPRSS4 (11747572_a_at) / RFU HAMP (11756126_x_at) / Fold change /veh HAMP (11756126_x_at) / RFU RNFT2 (11725882_a_at) / Fold change /veh RNFT2 (11725882_a_at) / RFU NR4A2 (11747474_a_at) / Fold change /veh NR4A2 (11747474_a_at) / RFU ABCC12 (11746883_a_at) / Fold change /veh ABCC12 (11746883_a_at) / RFU TMEM136 (11760407_x_at) / Fold change /veh TMEM136 (11760407_x_at) / RFU CLDN22 /// WWC2 (11732394_at) / Fold change /veh CLDN22 /// WWC2 (11732394_at) / RFU HLA-DPB1 (11760878_x_at) / Fold change /veh HLA-DPB1 (11760878_x_at) / RFU SPINT1 (11716480_a_at) / Fold change /veh SPINT1 (11716480_a_at) / RFU GAP43 (11754022_s_at) / Fold change /veh GAP43 (11754022_s_at) / RFU A4GNT (11735810_at) / Fold change /veh A4GNT (11735810_at) / RFU PRB3 (11715151_x_at) / Fold change /veh PRB3 (11715151_x_at) / RFU TUBB4B (11761932_at) / Fold change /veh TUBB4B (11761932_at) / RFU CAPN14 (11732068_a_at) / Fold change /veh CAPN14 (11732068_a_at) / RFU TMCC2 (11721928_a_at) / Fold change /veh TMCC2 (11721928_a_at) / RFU IRGQ (11745062_a_at) / Fold change /veh IRGQ (11745062_a_at) / RFU FAM174B (11720279_a_at) / Fold change /veh FAM174B (11720279_a_at) / RFU TMPRSS4 (11748680_a_at) / Fold change /veh TMPRSS4 (11748680_a_at) / RFU FAM212B (11763350_a_at) / Fold change /veh FAM212B (11763350_a_at) / RFU PLEKHG5 (11743358_a_at) / Fold change /veh PLEKHG5 (11743358_a_at) / RFU ZSCAN30 (11745921_a_at) / Fold change /veh ZSCAN30 (11745921_a_at) / RFU CMKLR1 (11741424_a_at) / Fold change /veh CMKLR1 (11741424_a_at) / RFU LOC101060620 /// MAPK8IP1 (11723275_at) / Fold change /veh LOC101060620 /// MAPK8IP1 (11723275_at) / RFU SPTSSB (11747773_x_at) / Fold change /veh SPTSSB (11747773_x_at) / RFU PRSS12 (11739890_at) / Fold change /veh PRSS12 (11739890_at) / RFU BIN1 (11741810_x_at) / Fold change /veh BIN1 (11741810_x_at) / RFU WNT11 (11732464_a_at) / Fold change /veh WNT11 (11732464_a_at) / RFU C10orf10 (11716521_a_at) / Fold change /veh C10orf10 (11716521_a_at) / RFU C5orf56 (11738089_at) / Fold change /veh C5orf56 (11738089_at) / RFU CYB561 (11721691_x_at) / Fold change /veh CYB561 (11721691_x_at) / RFU ANKRD19P (11752326_a_at) / Fold change /veh ANKRD19P (11752326_a_at) / RFU OR2T12 /// OR2T33 /// OR2T8 (11738714_s_at) / Fold change /veh OR2T12 /// OR2T33 /// OR2T8 (11738714_s_at) / RFU VCAN (11748164_a_at) / Fold change /veh VCAN (11748164_a_at) / RFU JSRP1 (11732532_at) / Fold change /veh JSRP1 (11732532_at) / RFU KRTAP10-11 (11738290_x_at) / Fold change /veh KRTAP10-11 (11738290_x_at) / RFU MYO3A (11730013_a_at) / Fold change /veh MYO3A (11730013_a_at) / RFU EBF3 (11725865_a_at) / Fold change /veh EBF3 (11725865_a_at) / RFU CAMK2N1 (11719241_x_at) / Fold change /veh CAMK2N1 (11719241_x_at) / RFU C5orf56 (11738088_a_at) / Fold change /veh C5orf56 (11738088_a_at) / RFU OLFML3 (11715873_a_at) / Fold change /veh OLFML3 (11715873_a_at) / RFU LOC100653217 /// NTM (11731650_a_at) / Fold change /veh LOC100653217 /// NTM (11731650_a_at) / RFU MAPK11 (11762145_a_at) / Fold change /veh MAPK11 (11762145_a_at) / RFU FIZ1 (11724087_x_at) / Fold change /veh FIZ1 (11724087_x_at) / RFU OASL (11726364_x_at) / Fold change /veh OASL (11726364_x_at) / RFU SOX15 (11748057_x_at) / Fold change /veh SOX15 (11748057_x_at) / RFU CD79A (11719716_a_at) / Fold change /veh CD79A (11719716_a_at) / RFU HIST1H1D (11736915_at) / Fold change /veh HIST1H1D (11736915_at) / RFU CASKIN2 (11723855_a_at) / Fold change /veh CASKIN2 (11723855_a_at) / RFU LOC730098 (11760151_x_at) / Fold change /veh LOC730098 (11760151_x_at) / RFU OR4N2 (11742367_at) / Fold change /veh OR4N2 (11742367_at) / RFU PRRT2 (11749266_a_at) / Fold change /veh PRRT2 (11749266_a_at) / RFU SNX32 (11753110_a_at) / Fold change /veh SNX32 (11753110_a_at) / RFU CDHR5 (11726645_a_at) / Fold change /veh CDHR5 (11726645_a_at) / RFU RCAN1 (11760418_a_at) / Fold change /veh RCAN1 (11760418_a_at) / RFU FAM167A (11723789_a_at) / Fold change /veh FAM167A (11723789_a_at) / RFU FAM26E (11764081_at) / Fold change /veh FAM26E (11764081_at) / RFU ISYNA1 (11749810_s_at) / Fold change /veh ISYNA1 (11749810_s_at) / RFU ACY1 (11761880_at) / Fold change /veh ACY1 (11761880_at) / RFU 11764098_at / Fold change /veh 11764098_at / RFU SAMD14 (11745864_x_at) / Fold change /veh SAMD14 (11745864_x_at) / RFU NPB (11741838_a_at) / Fold change /veh NPB (11741838_a_at) / RFU TMPRSS6 (11731388_a_at) / Fold change /veh TMPRSS6 (11731388_a_at) / RFU KRTAP10-2 (11738614_at) / Fold change /veh KRTAP10-2 (11738614_at) / RFU ARHGAP8 /// PRR5-ARHGAP8 (11727945_x_at) / Fold change /veh ARHGAP8 /// PRR5-ARHGAP8 (11727945_x_at) / RFU KRTAP5-7 /// NADSYN1 (11734609_at) / Fold change /veh KRTAP5-7 /// NADSYN1 (11734609_at) / RFU RASL12 (11751679_a_at) / Fold change /veh RASL12 (11751679_a_at) / RFU CDKN2B (11736163_a_at) / Fold change /veh CDKN2B (11736163_a_at) / RFU PRF1 (11729649_at) / Fold change /veh PRF1 (11729649_at) / RFU, ZNF638 /// ZNF638-IT1 / Fold change vs veh, ZNF638 /// ZNF638-IT1 / RFU, PANK3 / Fold change vs veh, PANK3 / RFU, SH3YL1 / Fold change vs veh, SH3YL1 / RFU, ZEB2 / Fold change vs veh, ZEB2 / RFU, NRIP1 / Fold change vs veh, NRIP1 / RFU, PTTG1IP / Fold change vs veh, PTTG1IP / RFU, CAPN2 / Fold change vs veh, CAPN2 / RFU, MED14 / Fold change vs veh, MED14 / RFU, SNORA58 / Fold change vs veh, SNORA58 / RFU, C1orf63 / Fold change vs veh, C1orf63 / RFU, LRRFIP1 / Fold change vs veh, LRRFIP1 / RFU, NDUFAF7 / Fold change vs veh, NDUFAF7 / RFU, SLC12A2 / Fold change vs veh, SLC12A2 / RFU, IBTK / Fold change vs veh, IBTK / RFU, ESF1 / Fold change vs veh, ESF1 / Fold change vs veh, TMEM50B / RFU, TAOK1 / Fold change vs veh, TAOK1 / RFU, ACBD3 / Fold change vs veh, ACBD3 / RFU, TMA16 / Fold change vs veh, TMA16 / RFU, RWDD3 / Fold change vs veh, RWDD3 / RFU, BCAT1 / Fold change vs veh, BCAT1 / RFU, EDEM3 / Fold change vs veh, EDEM3 / RFU, TMEM33 / Fold change vs veh, TMEM33 / RFU, WDR75 / Fold change vs veh, WDR75 / RFU, AHCTF1 / Fold change vs veh, AHCTF1 / RFU, TFRC / Fold change vs veh, TFRC / RFU, ZDHHC17 / Fold change vs veh, ZDHHC17 / RFU, NOM1 / Fold change vs veh, NOM1 / RFU, ARL8B / Fold change vs veh, ARL8B / RFU, ZBTB11 / Fold change vs veh, ZBTB11 / RFU, TAMM41 / Fold change vs veh, TAMM41 / RFU, KIAA1704 /// LOC100996395 / Fold change vs veh, KIAA1704 /// LOC100996395 / RFU, ING1 / Fold change vs veh, ING1 / RFU, TRMT61B / Fold change vs veh, TRMT61B / RFU, FUBP3 / Fold change vs veh, FUBP3 / RFU, TP53 / Fold change vs veh, TP53 / RFU, TNKS2 / Fold change vs veh, TNKS2 / RFU, ZFP14 / Fold change vs veh, ZFP14 / RFU, ACTR2 / Fold change vs veh, ACTR2 / RFU, PPP3R1 / Fold change vs veh, PPP3R1 / RFU, PIK3R1 / Fold change vs veh, PIK3R1 / RFU, HNRNPA1 / Fold change vs veh, HNRNPA1 / RFU, RNF170 / Fold change vs veh, RNF170 / RFU, ZNF28 / Fold change vs veh, ZNF28 / RFU, RNGTT / Fold change vs veh, RNGTT / RFU, OGT / Fold change vs veh, OGT / RFU, BRD1 / Fold change vs veh, BRD1 / RFU, MARS / Fold change vs veh, MARS / RFU, ZNF655 / Fold change vs veh, ZNF655 / RFU, FAHD1 / Fold change vs veh, FAHD1 / RFU, BDP1 / Fold change vs veh, BDP1 / RFU, LRRCC1 / Fold change vs veh, LRRCC1 / RFU, ARID1A / Fold change vs veh, ARID1A / RFU, ZNF146 / Fold change vs veh, ZNF146 / RFU, ZNF330 / Fold change vs veh, ZNF330 / RFU, GPN3 / Fold change vs veh, GPN3 / RFU, C9orf123 / Fold change vs veh, C9orf123 / RFU, N4BP2L2 / Fold change vs veh, N4BP2L2 / RFU, ARFIP1 / Fold change vs veh, ARFIP1 / RFU, FAM179B / Fold change vs veh, FAM179B / RFU, BCL10 / Fold change vs veh, BCL10 / RFU, UHRF1BP1L / Fold change vs veh, UHRF1BP1L / RFU, BET1 / Fold change vs veh, BET1 / RFU, CNOT2 / Fold change vs veh, CNOT2 / RFU, ZNF268 / Fold change vs veh, ZNF268 / Fold change vs veh, ZNF507 / RFU, DGCR2 / Fold change vs veh, DGCR2 / RFU, WDSUB1 / Fold change vs veh, WDSUB1 / Fold change vs veh, HSP90B1 /// MIR3652 / RFU, ADSS / Fold change vs veh, ADSS / RFU, GK / Fold change vs veh, GK / RFU, ZNF148 / Fold change vs veh, ZNF148 / RFU, TAF9 / Fold change vs veh, TAF9 / RFU, SLC1A5 / Fold change vs veh, SLC1A5 / RFU, SLMO2 / Fold change vs veh, SLMO2 / RFU, ABCC4 / Fold change vs veh, ABCC4 / RFU, LOC101060439 /// RAP1B / Fold change vs veh, LOC101060439 /// RAP1B / RFU, RFX7 / Fold change vs veh, RFX7 / RFU, GTPBP10 / Fold change vs veh, GTPBP10 / RFU, CNEP1R1 / Fold change vs veh, CNEP1R1 / RFU, BIVM-ERCC5 /// ERCC5 / Fold change vs veh, BIVM-ERCC5 /// ERCC5 / RFU, ILF3 / Fold change vs veh, ILF3 / RFU 11762660_at / Fold change /veh 11762660_at / RFU VCAN (11757783_s_at) / Fold change /veh VCAN (11757783_s_at) / RFU DDX43 (11728927_at) / Fold change /veh DDX43 (11728927_at) / RFU KRT8 (11758188_x_at) / Fold change /veh KRT8 (11758188_x_at) / RFU NKD1 (11759106_at) / Fold change /veh NKD1 (11759106_at) / RFU SRD5A1 (11742802_a_at) / Fold change /veh SRD5A1 (11742802_a_at) / RFU TPSAB1 /// TPSB2 (11721975_s_at) / Fold change /veh TPSAB1 /// TPSB2 (11721975_s_at) / RFU GSTM3 (11746129_a_at) / Fold change /veh GSTM3 (11746129_a_at) / RFU IL23R (11737362_x_at) / Fold change /veh IL23R (11737362_x_at) / RFU TMEM51 (11727254_a_at) / Fold change /veh TMEM51 (11727254_a_at) / RFU PIWIL2 (11732686_x_at) / Fold change /veh PIWIL2 (11732686_x_at) / RFU ORM1 (11744905_x_at) / Fold change /veh ORM1 (11744905_x_at) / RFU CCDC152 (11743942_at) / Fold change /veh CCDC152 (11743942_at) / RFU ECM1 (11717891_a_at) / Fold change /veh ECM1 (11717891_a_at) / RFU IL23R (11748794_a_at) / Fold change /veh IL23R (11748794_a_at) / RFU TNFAIP8L3 (11732012_x_at) / Fold change /veh TNFAIP8L3 (11732012_x_at) / RFU MBOAT4 (11741988_at) / Fold change /veh MBOAT4 (11741988_at) / RFU 11764193_at / Fold change /veh 11764193_at / RFU TMEM53 (11763286_at) / Fold change /veh TMEM53 (11763286_at) / RFU MAGEB2 (11727129_at) / Fold change /veh MAGEB2 (11727129_at) / RFU TMEM200A (11744735_a_at) / Fold change /veh TMEM200A (11744735_a_at) / RFU CCDC152 (11751479_a_at) / Fold change /veh CCDC152 (11751479_a_at) / RFU FAM211A (11726209_a_at) / Fold change /veh FAM211A (11726209_a_at) / RFU RGS16 (11746705_a_at) / Fold change /veh RGS16 (11746705_a_at) / RFU VCAN (11755009_s_at) / Fold change /veh VCAN (11755009_s_at) / RFU RHOB (11743442_s_at) / Fold change /veh RHOB (11743442_s_at) / RFU RGS16 (11720943_a_at) / Fold change /veh RGS16 (11720943_a_at) / RFU RGS16 (11720944_at) / Fold change /veh RGS16 (11720944_at) / RFU, VPS4B / Fold change vs veh, VPS4B / RFU, CREB1 / Fold change vs veh, CREB1 / RFU, DNAJC13 / Fold change vs veh, DNAJC13 / RFU, GNAQ / Fold change vs veh, GNAQ / RFU, CDK5R1 / Fold change vs veh, CDK5R1 / RFU, ZRANB3 / Fold change vs veh, ZRANB3 / RFU, CUL4A / Fold change vs veh, CUL4A / RFU, CCNY / Fold change vs veh, CCNY / RFU, UFL1 / Fold change vs veh, UFL1 / RFU, COG3 / Fold change vs veh, COG3 / RFU, DIAPH2 / Fold change vs veh, DIAPH2 / RFU, SKA2 / Fold change vs veh, SKA2 / RFU, AFF3 / Fold change vs veh, AFF3 / RFU, LMF1 / Fold change vs veh, LMF1 / RFU, IPO11 / Fold change vs veh, IPO11 / RFU, DFFB / Fold change vs veh, DFFB / RFU, FOXP1 / Fold change vs veh, FOXP1 / RFU, CARD8 / Fold change vs veh, CARD8 / RFU, STRN3 / Fold change vs veh, STRN3 / RFU, ADK / Fold change vs veh, ADK / RFU, RASSF2 / Fold change vs veh, RASSF2 / RFU, WIPF1 / Fold change vs veh, WIPF1 / RFU, LARP1B / Fold change vs veh, LARP1B / RFU, RASA1 / Fold change vs veh, RASA1 / RFU, RB1 / Fold change vs veh, RB1 / RFU, PPFIA1 / Fold change vs veh, PPFIA1 / RFU, MAT2A / Fold change vs veh, MAT2A / RFU, CCT5 / Fold change vs veh, CCT5 / RFU, WDR92 / Fold change vs veh, WDR92 / RFU, CUX1 / Fold change vs veh, CUX1 / RFU, TTC7A / Fold change vs veh, TTC7A / RFU, TMEM135 / Fold change vs veh, TMEM135 / RFU, DEPTOR / Fold change vs veh, DEPTOR / RFU, CPM / Fold change vs veh, CPM / RFU, DNAJB6 / Fold change vs veh, DNAJB6 / RFU, CACNA2D3 / Fold change vs veh, CACNA2D3 / RFU, DTX4 / Fold change vs veh, DTX4 / RFU, TFCP2 / Fold change vs veh, TFCP2 / RFU, GMCL1 /// GMCL1P1 / Fold change vs veh, GMCL1 /// GMCL1P1 / RFU, AEBP2 / Fold change vs veh, AEBP2 / RFU, SNHG1 /// SNORD22 /// SNORD25 /// SNORD26 /// SNORD27 /// SNORD28 /// SNORD29 /// SNORD31 / Fold change vs veh, SNHG1 /// SNORD22 /// SNORD25 /// SNORD26 /// SNORD27 /// SNORD28 /// SNORD29 /// SNORD31 / Fold change (Aza/veh), C12orf56 (ProbeSet 11735607_a_at) / Fold change (ACY-1035/veh), C12orf56 (ProbeSet 11735607_a_at) / Fold change (Aza/veh), FGFR1OP (ProbeSet 11751329_s_at) / Fold change (ACY-1035/veh), FGFR1OP (ProbeSet 11751329_s_at) / Fold change (Aza/veh), VPS36 (ProbeSet 11739960_a_at) / Fold change (ACY-1035/veh), VPS36 (ProbeSet 11739960_a_at) / RFU SYPL1 (11715823_x_at) / Fold change /veh SYPL1 (11715823_x_at) / RFU IGFBP7 (11715501_s_at) / Fold change /veh IGFBP7 (11715501_s_at) / RFU REEP3 (11722064_at) / Fold change /veh REEP3 (11722064_at) / RFU IGLL1 (11728026_x_at) / Fold change /veh IGLL1 (11728026_x_at): dose or concentration left out as unconfirmed
# Conditions: ProbeSet 11720154_at; LIST B
compound,measurement,value
Nc1ncn([C@@H]2O[C@H](CO)[C@@H](O)[C@H]2O)c(=O)n1 [azacitidine],"RFU, NRIP1",462.80 RFU
